Data on 30 molecules can be found in patent US9493446B2, “Orexin receptor antagonists which are [ortho bi-(hetero-)aryl]-[2-(meta bi-(hetero-)aryl)-pyrrolidin-1-yl]-methanone derivatives” (Actelion Pharmaceuticals Ltd, priority 2012, dated 2016).

Experiment [1] concerns the target human orexin-2 receptor (Homo sapiens (Human), UniProt O43614). Briefly: Intracellular calcium measurement (FLIPR), CHO cells expressing human orexin-2 receptor, 3 nM orexin-A. The conditions noted are these: read-out: IC50 OX2. It is filed as cell-based. In outline: (§1)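 CHO transfectants were dye-loaded (fluo-4 AM, probenecid) and exposed to antagonist for 120 min ahead of agonist.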
(Calcium assays in cells follow changes in intracellular calcium, usually with a dye or a luminescent sensor.)

The target in experiment [2] is orexin-1 (Homo sapiens (Human), UniProt O43613). Briefly: Intracellular calcium measurement (FLIPR), CHO cells expressing human orexin-1 receptor, 3 nM orexin-A. It is filed as cell-based. The note with it: read-out: IC50 OX1. In outline:
as §1

Setting [3] is: CHO cells expressing human orexin-2 receptor, FLIPR, 3 nM orexin-A, geometric mean if determined several times.
Setting [4] is: CHO cells expressing human orexin-1 receptor, FLIPR, 3 nM orexin-A, geometric mean if determined several times.

Molecules are shown by their SMILES. Like-named read-outs stand apart in the source and are kept apart here.

In general, IC50 refers to the concentration that inhibits the measured activity by half.

human orexin-2 receptor, sequence (O43614 whole entry): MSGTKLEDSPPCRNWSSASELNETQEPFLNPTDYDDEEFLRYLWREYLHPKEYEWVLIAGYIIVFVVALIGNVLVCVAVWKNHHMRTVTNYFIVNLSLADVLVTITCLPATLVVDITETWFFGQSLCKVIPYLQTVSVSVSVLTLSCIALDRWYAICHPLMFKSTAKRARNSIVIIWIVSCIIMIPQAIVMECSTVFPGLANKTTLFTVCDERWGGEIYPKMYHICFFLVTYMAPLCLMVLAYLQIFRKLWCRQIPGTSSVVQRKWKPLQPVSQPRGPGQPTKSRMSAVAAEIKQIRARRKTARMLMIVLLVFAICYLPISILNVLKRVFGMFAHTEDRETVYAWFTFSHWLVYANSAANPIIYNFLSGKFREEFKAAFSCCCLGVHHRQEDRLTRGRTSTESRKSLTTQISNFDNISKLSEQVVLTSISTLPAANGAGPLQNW
orexin-1, sequence (O43613 whole entry): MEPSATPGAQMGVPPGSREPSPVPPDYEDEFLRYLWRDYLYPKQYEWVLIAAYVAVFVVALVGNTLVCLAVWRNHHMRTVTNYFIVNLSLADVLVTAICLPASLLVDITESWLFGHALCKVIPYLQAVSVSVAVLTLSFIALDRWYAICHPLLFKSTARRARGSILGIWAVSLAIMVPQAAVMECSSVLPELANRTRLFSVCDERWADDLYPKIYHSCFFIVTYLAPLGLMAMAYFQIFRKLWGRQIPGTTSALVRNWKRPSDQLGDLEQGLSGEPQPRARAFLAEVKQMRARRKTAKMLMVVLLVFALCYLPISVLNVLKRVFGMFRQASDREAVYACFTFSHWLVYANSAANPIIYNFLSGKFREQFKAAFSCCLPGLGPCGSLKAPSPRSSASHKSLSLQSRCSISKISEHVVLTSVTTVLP

As to `COc1cc(C(=O)N2CCC[C@H]2c2nc(-c3cccc(F)c3OC)no2)c(-n2nccn2)cc1OC` [compound 208, (4,5-Dimethoxy-2-[1,2,3]triazol-2-yl-phenyl)-{(S)-2-[3-(3-fluoro-2-methoxy-phenyl)-[1,2,4]oxadiazol-5-yl]-pyrrolidin-1-yl}-methanone], the IC50 was 20 nM in experiment [1] (setting [3]) and 225 nM in experiment [2] (setting [4]).

`CCOc1ncccc1-c1noc([C@@H]2CCCN2C(=O)c2cc(C)cc(C)c2-n2nccn2)n1` [compound 209, (3,5-Dimethyl-2-[1,2,3]triazol-2-yl-phenyl)-{(S)-2-[3-(2-ethoxy-pyridin-3-yl)-[1,2,4]oxadiazol-5-yl]-pyrrolidin-1-yl}-methanone]: the IC50 turned out to be 21 nM in experiment [1] (setting [3]) and 56 nM in experiment [2] (setting [4]).

`CCOc1ncccc1-c1noc([C@@H]2CCCN2C(=O)c2ccc(C)cc2-n2nccn2)n1` [compound 211, {(S)-2-[3-(2-Ethoxy-pyridin-3-yl)-[1,2,4]oxadiazol-5-yl]-pyrrolidin-1-yl}-(4-methyl-2-[1,2,3]triazol-2-yl-phenyl)-methanone]: the IC50 in experiment [1] (setting [3]) amounted to 37 nM; in experiment [2] (setting [4]), 81 nM.

Regarding `CCOc1ncccc1-c1noc([C@@H]2CCCN2C(=O)c2cc(C)c(C)cc2-n2nccn2)n1` [compound 212, (4,5-Dimethyl-2-[1,2,3]triazol-2-yl-phenyl)-{(S)-2-[3-(2-ethoxy-pyridin-3-yl)-[1,2,4]oxadiazol-5-yl]-pyrrolidin-1-yl}-methanone], the IC50 was found to be 3 nM in experiment [1] (setting [3]) and 6 nM in experiment [2] (setting [4]).

`CCOc1ncccc1-c1noc([C@@H]2CCCN2C(=O)c2nc(C)ccc2-n2nccn2)n1` [compound 213, {(S)-2-[3-(2-Ethoxy-pyridin-3-yl)-[1,2,4]oxadiazol-5-yl]-pyrrolidin-1-yl}-(6-methyl-3-[1,2,3]triazol-2-yl-pyridin-2-yl)-methanone]: the results for the IC50 in experiment [1] (setting [3]) and in experiment [2] (setting [4]) were 46 nM and 169 nM, respectively.

`CCOc1ncccc1-c1noc([C@@H]2CCCN2C(=O)c2cc(OC)c(C)cc2-n2nccn2)n1` [compound 215, {(S)-2-[3-(2-Ethoxy-pyridin-3-yl)-[1,2,4]oxadiazol-5-yl]-pyrrolidin-1-yl}-(5-methoxy-4-methyl-2-[1,2,3]triazol-2-yl-phenyl)-methanone]: the IC50 in experiment [1] (setting [3]) is 3 nM; in experiment [2] (setting [4]) it was 18 nM.

Consider `CCOc1ncccc1-c1noc([C@@H]2CCCN2C(=O)c2cccc(F)c2-c2ccn[nH]2)n1` [compound 216, {(S)-2-[3-(2-Ethoxy-pyridin-3-yl)-[1,2,4]oxadiazol-5-yl]-pyrrolidin-1-yl}-[3-fluoro-2-(2H-pyrazol-3-yl)-phenyl]-methanone], for which the IC50 in experiment [1] (setting [3]) is 27 nM; in experiment [2] (setting [4]), 76 nM.

Turning to `CCOc1ncccc1-c1noc([C@@H]2CCCN2C(=O)c2cc(C)ccc2-c2ccccn2)n1` [compound 217, {(S)-2-[3-(2-Ethoxy-pyridin-3-yl)-[1,2,4]oxadiazol-5-yl]-pyrrolidin-1-yl}-(5-methyl-2-pyridin-2-yl-phenyl)-methanone], the IC50 in experiment [1] (setting [3]) is 14 nM; in experiment [2] (setting [4]), 40 nM.

As to `CCOc1ncccc1-c1noc([C@@H]2CCCN2C(=O)c2ccccc2-n2nccn2)n1` [compound 218, {(S)-2-[3-(2-Ethoxy-pyridin-3-yl)-[1,2,4]oxadiazol-5-yl]-pyrrolidin-1-yl}-(2-[1,2,3]triazol-2-yl-phenyl)-methanone], the figures for the IC50 in experiment [1] (setting [3]) and in experiment [2] (setting [4]) were 99 nM and 331 nM, respectively.

For the molecule `CCOc1ncccc1-c1noc([C@@H]2CCCN2C(=O)c2cc(OC)ccc2-n2nccn2)n1` [compound 220, {(S)-2-[3-(2-Ethoxy-pyridin-3-yl)-[1,2,4]oxadiazol-5-yl]-pyrrolidin-1-yl}-(5-methoxy-2-[1,2,3]triazol-2-yl-phenyl)-methanone], the figures for the IC50 in experiment [1] (setting [3]) and in experiment [2] (setting [4]) were 16 nM and 53 nM, respectively.

For `CCOc1ncccc1-c1noc([C@@H]2CCCN2C(=O)c2ccc(C(F)(F)F)cc2-n2nccn2)n1` [compound 222, {(S)-2-[3-(2-Ethoxy-pyridin-3-yl)-[1,2,4]oxadiazol-5-yl]-pyrrolidin-1-yl}-(2-[1,2,3]triazol-2-yl-4-trifluoromethyl-phenyl)-methanone], the IC50 in experiment [1] (setting [3]) worked out at 121 nM; in experiment [2] (setting [4]), 351 nM.

For the molecule `CCOc1ncccc1-c1noc([C@@H]2CCCN2C(=O)c2cc(OC)c(F)cc2-n2nccn2)n1` [compound 223, {(S)-2-[3-(2-Ethoxy-pyridin-3-yl)-[1,2,4]oxadiazol-5-yl]-pyrrolidin-1-yl}-(4-fluoro-5-methoxy-2-[1,2,3]triazol-2-yl-phenyl)-methanone], the values for the IC50 in experiment [1] (setting [3]) and in experiment [2] (setting [4]) were 17 nM and 253 nM, respectively.

With `CCOc1ncccc1-c1noc([C@@H]2CCCN2C(=O)c2cc(C)ccc2-c2ncco2)n1` [compound 224, {(S)-2-[3-(2-Ethoxy-pyridin-3-yl)-[1,2,4]oxadiazol-5-yl]-pyrrolidin-1-yl}-(5-methyl-2-oxazol-2-yl-phenyl)-methanone], the IC50 in experiment [1] (setting [3]) stood at 6 nM; in experiment [2] (setting [4]) it was 19 nM.

With `CCOc1ncccc1-c1noc([C@@H]2CCCN2C(=O)c2cc(F)cc(C)c2-n2nccn2)n1` [compound 225, {(S)-2-[3-(2-Ethoxy-pyridin-3-yl)-[1,2,4]oxadiazol-5-yl]-pyrrolidin-1-yl}-(5-fluoro-3-methyl-2-[1,2,3]triazol-2-yl-phenyl)-methanone], the IC50 amounted to 600 nM in experiment [1] (setting [3]) and 964 nM in experiment [2] (setting [4]).

With `CCOc1ncccc1-c1noc([C@@H]2CCCN2C(=O)c2cc(OC)c(OC)cc2-n2nccn2)n1` [compound 226, (4,5-Dimethoxy-2-[1,2,3]triazol-2-yl-phenyl)-{(S)-2-[3-(2-ethoxy-pyridin-3-yl)-[1,2,4]oxadiazol-5-yl]-pyrrolidin-1-yl}-methanone], the IC50 in experiment [1] (setting [3]) was 148 nM; in experiment [2] (setting [4]), 160 nM.

With `COc1ccccc1-c1noc([C@@H]2CCCN2C(=O)c2ccccc2-n2nccn2)n1` [compound 227, {(S)-2-[3-(2-Methoxy-phenyl)-[1,2,4]oxadiazol-5-yl]-pyrrolidin-1-yl}-(2-[1,2,3]triazol-2-yl-phenyl)-methanone], the IC50 in experiment [1] (setting [3]) was determined as 425 nM; in experiment [2] (setting [4]), 852 nM.

As for `COc1ccccc1-c1noc([C@@H]2CCCN2C(=O)c2cc(Cl)ccc2-n2nccn2)n1` [compound 228], the IC50 turned out to be 134 nM in experiment [1] (setting [3]) and 272 nM in experiment [2].

With `COc1ccccc1-c1noc([C@@H]2CCCN2C(=O)c2ccc(C)cc2-n2nccn2)n1` [compound 229, {(S)-2-[3-(2-Methoxy-phenyl)-[1,2,4]oxadiazol-5-yl]-pyrrolidin-1-yl}-(4-methyl-2-[1,2,3]triazol-2-yl-phenyl)-methanone], the IC50 in experiment [1] (setting [3]) was 240 nM; in experiment [2] (setting [4]), 163 nM.

As for `COc1ccccc1-c1noc([C@@H]2CCCN2C(=O)c2cc(C)c(C)cc2-n2nccn2)n1` [compound 230, (4,5-Dimethyl-2-[1,2,3]triazol-2-yl-phenyl)-{(S)-2-[3-(2-methoxy-phenyl)-[1,2,4]oxadiazol-5-yl]-pyrrolidin-1-yl}-methanone], the IC50 in experiment [1] (setting [3]) stood at 15 nM; in experiment [2] (setting [4]), 23 nM.

Turning to `COc1cc(C(=O)N2CCC[C@H]2c2nc(-c3ccccc3OC)no2)c(-n2nccn2)cc1C` [compound 231, (5-Methoxy-4-methyl-2-[1,2,3]triazol-2-yl-phenyl)-{(S)-2-[3-(2-methoxy-phenyl)-[1,2,4]oxadiazol-5-yl]-pyrrolidin-1-yl}-methanone], the IC50 in experiment [1] (setting [3]) was found to be 15 nM; in experiment [2] (setting [4]), 66 nM.

In the case of `COc1ccc(-n2nccn2)c(C(=O)N2CCC[C@H]2c2nc(-c3ccccc3OC)no2)c1` [compound 232, {(S)-2-[3-(2-Methoxy-phenyl)-[1,2,4]oxadiazol-5-yl]-pyrrolidin-1-yl}-(5-methoxy-2-[1,2,3]triazol-2-yl-phenyl)-methanone], the IC50 stood at 78 nM in experiment [1] (setting [3]) and 134 nM in experiment [2] (setting [4]).

As to `COc1ccccc1-c1noc([C@@H]2CCCN2C(=O)c2cc(F)ccc2-n2nccn2)n1` [compound 233, (5-Fluoro-2-[1,2,3]triazol-2-yl-phenyl)-{(S)-2-[3-(2-methoxy-phenyl)-[1,2,4]oxadiazol-5-yl]-pyrrolidin-1-yl}-methanone], the values for the IC50 in experiment [1] (setting [3]) and in experiment [2] (setting [4]) were 341 nM and 1410 nM, respectively.

As to `COc1ccccc1-c1noc([C@@H]2CCCN2C(=O)c2nc(C)ccc2-n2nccn2)n1` [compound 235, {(S)-2-[3-(2-Methoxy-phenyl)-[1,2,4]oxadiazol-5-yl]-pyrrolidin-1-yl}-(6-methyl-3-[1,2,3]triazol-2-yl-pyridin-2-yl)-methanone], the IC50 in experiment [1] (setting [3]) amounted to 992 nM; in experiment [2] (setting [4]), 361 nM.

For the molecule `O=C(c1cc(Cl)ccc1-n1nccn1)N1CCC[C@H]1c1nc(-c2ccccc2Cl)no1` [compound 236], the IC50 in experiment [1] worked out at 150 nM; in experiment [2] (setting [4]) it was 1850 nM.

On to `Cc1ccc(C(=O)N2CCC[C@H]2c2nc(-c3ccccc3Cl)no2)c(-n2nccn2)c1` [compound 237], for which the IC50 in experiment [1] (setting [3]) amounted to 186 nM; in experiment [2] (setting [4]), 844 nM.

Take `Cc1cc(C(=O)N2CCC[C@H]2c2nc(-c3ccccc3Cl)no2)c(-n2nccn2)cc1C` [compound 238]: the IC50 in experiment [1] (setting [3]) was 16 nM; in experiment [2] (setting [4]), 104 nM.

For `COc1cc(C(=O)N2CCC[C@H]2c2nc(-c3ccccc3Cl)no2)c(-n2nccn2)cc1C` [compound 239], the IC50 in experiment [1] (setting [3]) turned out to be 24 nM; in experiment [2] it was 378 nM.

`COc1ccc(-n2nccn2)c(C(=O)N2CCC[C@H]2c2nc(-c3ccccc3Cl)no2)c1` [compound 240]: the IC50 was 147 nM in experiment [1] (setting [3]) and 1330 nM in experiment [2] (setting [4]).

In the case of `Cc1ccc(-n2nccn2)c(C(=O)N2CCC[C@H]2c2nc(-c3ccccc3Cl)no2)n1` [compound 242], the IC50 in experiment [1] (setting [3]) worked out at 1440 nM; in experiment [2] (setting [4]), 4360 nM.

On to `O=C(c1ccccc1-n1nccn1)N1CCC[C@H]1c1nc(-c2ccccc2Cl)no1` [compound 243], for which the IC50 in experiment [1] worked out at 312 nM; in experiment [2], 2680 nM.
